Experimental data: patent publication US12410160B2 (Gilead Sciences, Inc., priority 2021, dated 2025)
Like-named read-outs stand apart in the source and are kept apart here.

Experiments:
HepG2 cells = assay: F1P Cell-Based Assay (EC50), 13C6-fructose-1-phosphate in HepG2 cells (cell culture medium or 50% human plasma)
Method: F1P Cell-Based Assay (EC50)
Compounds were serially diluted (1:3) in DMSO. The LabCyte ECHO Acoustic dispenser system was used to pre-spot the assay plates (Greiner, Catalog #781091) with 400 nL (200-fold final dilution in 80 μL assay volume) of compound. 25,000 cells/well HepG2 cells (ATCC Catalog #HB-8065) were plated in a 40 μL volume/well in DMEM medium with 4.5 g/L glucose, 1× Penicillin-Streptomycin-Glutamine, and 10% FBS, using a BioTEK dispenser in a biological hood and incubated overnight at 37° C., 5% CO2, 90% humidity. 40 μL/well serum free assay medium (for F1P assay in cell culture medium), or 40 μL/well 100% human plasma (for F1P assay in 50% human plasma) were then added to the plates on the following day, and incubated for 1 hour at 37° C., 5% CO2, 90% humidity. ^13C6-labelled fructose (Sigma, Catalog #587621) in sterile PBS was added to the plates at a final concentration of 5 mM. The plates were incubated for 2 hours at 37° C., 5% CO2, 90% humidity. The assay was quenched by washing the cells with sterile PBS and adding 60 μL/well of 80% (v/v) methanol, 2 mM ammonium acetate and 2.5 μM Crotonyl-CoA, using a BioTEK washer-dispenser system. The plates were then sealed and stored in the −80° C. freezer until ready for RapidFire readout. ^13C6-fructose-1-phosphate in individual wells was quantified using the Agilent RapidFire High-Throughput MS system in negative mode using a […]. Mobile Phase 1 consisted of 20 mM ammonium acetate with 0.05% acetic acid in 100% methanol. Mobile phase 2 consisted of 5 mM octylamine in water (pH adjusted to 5 using acetic acid). F1P signals in individual wells were normalized by crotonyl CoA internal control.

human KHK-C = human KHK-C (Homo sapiens (Human), UniProt P50053); assay: KHK Biochemical Assay (IC50), ADP-Glo, KHK-C; details: average of at least two separate assays
How it was run: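 ADP-Glo luminescence measured ADP made over a 4 h room-temperature reaction of ATP plus fructose, started after 30 min compound–enzyme pre-incubation. Buffer: 50 mM Hepes pH 7.4, 140 mM KCl, 5 mM MgCl2, 0.01% Triton-X. Enzyme was His-tagged, BL21 (DE3)-expressed, Ni-NTA-purified; compounds in 1:3 DMSO dilution series.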

[1] = Homo sapiens, HepG2, HepG2 cells, 50% human plasma, read-out: F1P 50% HP EC50
[2] = Homo sapiens, HepG2, read-out: F1P 10% FBS EC50, HepG2 cells, cell culture medium (10% FBS)
[3] = HepG2 cells, 50% human plasma, read-out: F1P 50% HP EC50
[4] = read-out: F1P 10% FBS EC50, HepG2 cells, cell culture medium (10% FBS)

human KHK-C, sequence (P50053 whole entry): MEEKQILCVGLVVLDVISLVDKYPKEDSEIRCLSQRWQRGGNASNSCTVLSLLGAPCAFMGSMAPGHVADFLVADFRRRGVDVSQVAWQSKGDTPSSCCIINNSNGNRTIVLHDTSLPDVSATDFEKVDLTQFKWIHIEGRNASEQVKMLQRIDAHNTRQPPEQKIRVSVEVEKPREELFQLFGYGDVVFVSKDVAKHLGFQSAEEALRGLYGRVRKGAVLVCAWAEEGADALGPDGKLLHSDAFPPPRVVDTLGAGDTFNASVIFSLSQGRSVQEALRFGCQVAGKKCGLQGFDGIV

Structure (SMILES) | EC50 (HepG2 cells; [1]) [nM] | EC50 (HepG2 cells; [2]) [nM] | IC50 (human KHK-C) [nM] | EC50 (HepG2 cells; [3]) [nM] | EC50 (HepG2 cells; [4]) [nM]
C[C@H]1[C@H](O)CN1c1nc(-c2cc(F)c3c(c2)CC[C@@H]3NS(C)(=O)=O)c2c(n1)C(F)(F)CC2 (single isomer, unassigned) [Example 526] | 114 | 30.8 | 4.9 |  | 
C[C@H]1[C@H](O)CN1c1nc(-c2cc(F)c3c(c2)CC[C@H]3NS(C)(=O)=O)c2c(n1)C(F)(F)CC2 (single isomer, unassigned) [Example 527] | 123 | 81.2 | 8 |  | 
COc1cc(-c2nc(N3C[C@@H](O)[C@@H]3C)nc3c2CCC3(F)F)cc2c1[C@H](NS(C)(=O)=O)CO2 (single isomer, unassigned) [Example 531] |  |  | 9 | 439 | 55.1
CC[C@H]1CNC(=O)c2ccc(-c3nc(N4C[C@@H](O)[C@@H]4C)nc4c3CCC4(F)F)cc2O1 (single isomer, unassigned) [Example 592] | 56.9 | 15.3 | 7.3 |  | 
CC[C@@H]1CNC(=O)c2ccc(-c3nc(N4C[C@@H](O)[C@@H]4C)nc4c3CCC4(F)F)cc2O1 (single isomer, unassigned) [Example 593] |  |  | 7.5 | 58.7 | 22.8
C[C@H]1[C@H](O)CN1c1nc(-c2ccc3c(c2)O[C@@H](CF)CNC3=O)c2c(n1)C(F)(F)CC2 (single isomer, unassigned) [Example 595] | 51 | 34.9 | 4.4 |  | 
C[C@H]1[C@H](O)CN1c1nc(-c2cccc([C@@H]3CCS(=O)(=O)N3)c2)c2c(n1)C(F)(F)CC2 (single isomer, unassigned) [Example 618] |  |  | 11.2 | 24 | 18.1
C[C@H]1[C@H](O)CN1c1nc(-c2ccc3c(c2)C(C)(C)C[C@H]3NS(C)(=O)=O)c2c(n1)C(F)(F)CC2 (single isomer, unassigned) [Example 631] | > 500 | 78.9 | 10.7 |  | 
C[C@H]1[C@H](O)CN1c1nc(-c2ccc([C@@H](N)CC#N)cc2)c2c(n1)C(F)(F)CC2 (single isomer, unassigned) [Example 779] | 37.7 | 47.5 | 7.1 |  | 

Now those with a lower IC50 (human KHK-C), led by results:

EC50 (HepG2 cells; [1]) [nM] | EC50 (HepG2 cells; [2]) [nM] | IC50 (human KHK-C) [nM] | EC50 (HepG2 cells; [3]) [nM] | EC50 (HepG2 cells; [4]) [nM] | Structure (SMILES)
 |  | 3.5 | 30.7 | 16.1 | C[C@H]1[C@H](O)CN1c1nc(-c2ccc3c(c2)[C@H](NS(C)(=O)=O)CO3)c2c(n1)C(F)(F)CC2 (single isomer, unassigned) [Example 615]
17.2 | 22.6 | 3.1 |  |  | C[C@H]1[C@H](O)CN1c1nc(-c2ccc3c(c2)S(=O)(=O)C[C@@H]3N)c2c(n1)C(F)(F)CC2 (single isomer, unassigned) [Example 662]
13.6 | 12.2 | 2 |  |  | C[C@H]1[C@H](O)CN1c1nc(-c2ccc3c(c2)O[C@H](CF)CNC3=O)c2c(n1)C(F)(F)CC2 (single isomer, unassigned) [Example 596]
46.1 | 8.8 | 1.5 |  |  | C[C@H]1[C@H](O)CN1c1nc(-c2ccc3c(c2)[C@@H](NS(C)(=O)=O)CC3)c2c(n1)C(F)(F)CC2 (single isomer, unassigned) [Example 622]
34.8 | 6.8 | 1.3 |  |  | C[C@H]1[C@H](O)CN1c1nc(-c2ccc3c(c2)[C@H](NS(C)(=O)=O)CC3)c2c(n1)C(F)(F)CC2 (single isomer, unassigned) [Example 623]
6.3 | 4.8 | 1 |  |  | C[C@H]1[C@H](O)CN1c1nc(-c2ccc([C@@]3(N)CCOC3)cc2)c2c(n1)C(F)(F)CC2 (single isomer, unassigned) [Example 517]
54.7 | 10.7 | 1 |  |  | C[C@H]1CCN1c1nc(-c2ccc3c(c2)[C@@H](NS(C)(=O)=O)CC3)c2c(n1)C(F)(F)CC2 (single isomer, unassigned) [Example 609]
